Test results: paper PMC5218480 (PLoS ONE, 2017)

Test system: MV-4-11 cells
Assay: Gene expression microarray analysis (Affymetrix PrimeView) and GSEA
Assay type: cell-based, human
Design: RFU PODN (11730768_x_at) / Fold change /veh PODN (11730768_x_at) / RFU LINC00158 (11744669_a_at) / Fold change /veh LINC00158 (11744669_a_at) / RFU DUSP10 (11751237_a_at) / Fold change /veh DUSP10 (11751237_a_at) / RFU ID3 (11757404_x_at) / Fold change /veh ID3 (11757404_x_at) / RFU PLEKHG5 (11737974_s_at) / Fold change /veh PLEKHG5 (11737974_s_at) / RFU LRRC4B (11730491_at) / Fold change /veh LRRC4B (11730491_at) / RFU GIMAP4 (11747438_a_at) / Fold change /veh GIMAP4 (11747438_a_at) / RFU KRT8 (11758183_x_at) / Fold change /veh KRT8 (11758183_x_at) / RFU CNN1 (11734310_a_at) / Fold change /veh CNN1 (11734310_a_at) / RFU VPS37D (11726825_at) / Fold change /veh VPS37D (11726825_at) / RFU C10orf10 (11716522_x_at) / Fold change /veh C10orf10 (11716522_x_at) / RFU KIR2DL2 /// KIR2DL4 /// KIR2DL5A /// KIR2DL5B /// KIR2DS1 /// KIR2DS2 /// KIR2DS3 /// KIR2DS4 /// KIR3DL3 /// KIR3DL3 /// KIR3DS1 (11738374_at) / Fold change /veh KIR2DL2 /// KIR2DL4 /// KIR2DL5A /// KIR2DL5B /// KIR2DS1 /// KIR2DS2 /// KIR2DS3 /// KIR2DS4 /// KIR3DL3 /// KIR3DL3 /// KIR3DS1 (11738374_at) / RFU C1QL1 (11718748_at) / Fold change /veh C1QL1 (11718748_at) / RFU TMPRSS4 (11747572_a_at) / Fold change /veh TMPRSS4 (11747572_a_at) / RFU HAMP (11756126_x_at) / Fold change /veh HAMP (11756126_x_at) / RFU RNFT2 (11725882_a_at) / Fold change /veh RNFT2 (11725882_a_at) / RFU NR4A2 (11747474_a_at) / Fold change /veh NR4A2 (11747474_a_at) / RFU ABCC12 (11746883_a_at) / Fold change /veh ABCC12 (11746883_a_at) / RFU TMEM136 (11760407_x_at) / Fold change /veh TMEM136 (11760407_x_at) / RFU CLDN22 /// WWC2 (11732394_at) / Fold change /veh CLDN22 /// WWC2 (11732394_at) / RFU HLA-DPB1 (11760878_x_at) / Fold change /veh HLA-DPB1 (11760878_x_at) / RFU SPINT1 (11716480_a_at) / Fold change /veh SPINT1 (11716480_a_at) / RFU GAP43 (11754022_s_at) / Fold change /veh GAP43 (11754022_s_at) / RFU A4GNT (11735810_at) / Fold change /veh A4GNT (11735810_at) / RFU PRB3 (11715151_x_at) / Fold change /veh PRB3 (11715151_x_at) / RFU TUBB4B (11761932_at) / Fold change /veh TUBB4B (11761932_at) / RFU CAPN14 (11732068_a_at) / Fold change /veh CAPN14 (11732068_a_at) / RFU TMCC2 (11721928_a_at) / Fold change /veh TMCC2 (11721928_a_at) / RFU IRGQ (11745062_a_at) / Fold change /veh IRGQ (11745062_a_at) / RFU FAM174B (11720279_a_at) / Fold change /veh FAM174B (11720279_a_at) / RFU TMPRSS4 (11748680_a_at) / Fold change /veh TMPRSS4 (11748680_a_at) / RFU FAM212B (11763350_a_at) / Fold change /veh FAM212B (11763350_a_at) / RFU PLEKHG5 (11743358_a_at) / Fold change /veh PLEKHG5 (11743358_a_at) / RFU ZSCAN30 (11745921_a_at) / Fold change /veh ZSCAN30 (11745921_a_at) / RFU CMKLR1 (11741424_a_at) / Fold change /veh CMKLR1 (11741424_a_at) / RFU LOC101060620 /// MAPK8IP1 (11723275_at) / Fold change /veh LOC101060620 /// MAPK8IP1 (11723275_at) / RFU SPTSSB (11747773_x_at) / Fold change /veh SPTSSB (11747773_x_at) / RFU PRSS12 (11739890_at) / Fold change /veh PRSS12 (11739890_at) / RFU BIN1 (11741810_x_at) / Fold change /veh BIN1 (11741810_x_at) / RFU WNT11 (11732464_a_at) / Fold change /veh WNT11 (11732464_a_at) / RFU C10orf10 (11716521_a_at) / Fold change /veh C10orf10 (11716521_a_at) / RFU C5orf56 (11738089_at) / Fold change /veh C5orf56 (11738089_at) / RFU CYB561 (11721691_x_at) / Fold change /veh CYB561 (11721691_x_at) / RFU ANKRD19P (11752326_a_at) / Fold change /veh ANKRD19P (11752326_a_at) / RFU OR2T12 /// OR2T33 /// OR2T8 (11738714_s_at) / Fold change /veh OR2T12 /// OR2T33 /// OR2T8 (11738714_s_at) / RFU VCAN (11748164_a_at) / Fold change /veh VCAN (11748164_a_at) / RFU JSRP1 (11732532_at) / Fold change /veh JSRP1 (11732532_at) / RFU KRTAP10-11 (11738290_x_at) / Fold change /veh KRTAP10-11 (11738290_x_at) / RFU MYO3A (11730013_a_at) / Fold change /veh MYO3A (11730013_a_at) / RFU EBF3 (11725865_a_at) / Fold change /veh EBF3 (11725865_a_at) / RFU CAMK2N1 (11719241_x_at) / Fold change /veh CAMK2N1 (11719241_x_at) / RFU C5orf56 (11738088_a_at) / Fold change /veh C5orf56 (11738088_a_at) / RFU OLFML3 (11715873_a_at) / Fold change /veh OLFML3 (11715873_a_at) / RFU LOC100653217 /// NTM (11731650_a_at) / Fold change /veh LOC100653217 /// NTM (11731650_a_at) / RFU MAPK11 (11762145_a_at) / Fold change /veh MAPK11 (11762145_a_at) / RFU FIZ1 (11724087_x_at) / Fold change /veh FIZ1 (11724087_x_at) / RFU OASL (11726364_x_at) / Fold change /veh OASL (11726364_x_at) / RFU SOX15 (11748057_x_at) / Fold change /veh SOX15 (11748057_x_at) / RFU CD79A (11719716_a_at) / Fold change /veh CD79A (11719716_a_at) / RFU HIST1H1D (11736915_at) / Fold change /veh HIST1H1D (11736915_at) / RFU CASKIN2 (11723855_a_at) / Fold change /veh CASKIN2 (11723855_a_at) / RFU LOC730098 (11760151_x_at) / Fold change /veh LOC730098 (11760151_x_at) / RFU OR4N2 (11742367_at) / Fold change /veh OR4N2 (11742367_at) / RFU PRRT2 (11749266_a_at) / Fold change /veh PRRT2 (11749266_a_at) / RFU SNX32 (11753110_a_at) / Fold change /veh SNX32 (11753110_a_at) / RFU CDHR5 (11726645_a_at) / Fold change /veh CDHR5 (11726645_a_at) / RFU RCAN1 (11760418_a_at) / Fold change /veh RCAN1 (11760418_a_at) / RFU FAM167A (11723789_a_at) / Fold change /veh FAM167A (11723789_a_at) / RFU FAM26E (11764081_at) / Fold change /veh FAM26E (11764081_at) / RFU ISYNA1 (11749810_s_at) / Fold change /veh ISYNA1 (11749810_s_at) / RFU ACY1 (11761880_at) / Fold change /veh ACY1 (11761880_at) / RFU 11764098_at / Fold change /veh 11764098_at / RFU SAMD14 (11745864_x_at) / Fold change /veh SAMD14 (11745864_x_at) / RFU NPB (11741838_a_at) / Fold change /veh NPB (11741838_a_at) / RFU TMPRSS6 (11731388_a_at) / Fold change /veh TMPRSS6 (11731388_a_at) / RFU KRTAP10-2 (11738614_at) / Fold change /veh KRTAP10-2 (11738614_at) / RFU ARHGAP8 /// PRR5-ARHGAP8 (11727945_x_at) / Fold change /veh ARHGAP8 /// PRR5-ARHGAP8 (11727945_x_at) / RFU KRTAP5-7 /// NADSYN1 (11734609_at) / Fold change /veh KRTAP5-7 /// NADSYN1 (11734609_at) / RFU RASL12 (11751679_a_at) / Fold change /veh RASL12 (11751679_a_at) / RFU CDKN2B (11736163_a_at) / Fold change /veh CDKN2B (11736163_a_at) / RFU PRF1 (11729649_at) / Fold change /veh PRF1 (11729649_at) / RFU, ZNF638 /// ZNF638-IT1 / Fold change vs veh, ZNF638 /// ZNF638-IT1 / RFU, PANK3 / Fold change vs veh, PANK3 / RFU, SH3YL1 / Fold change vs veh, SH3YL1 / RFU, ZEB2 / Fold change vs veh, ZEB2 / RFU, NRIP1 / Fold change vs veh, NRIP1 / RFU, PTTG1IP / Fold change vs veh, PTTG1IP / RFU, CAPN2 / Fold change vs veh, CAPN2 / RFU, MED14 / Fold change vs veh, MED14 / RFU, SNORA58 / Fold change vs veh, SNORA58 / RFU, C1orf63 / Fold change vs veh, C1orf63 / RFU, LRRFIP1 / Fold change vs veh, LRRFIP1 / RFU, NDUFAF7 / Fold change vs veh, NDUFAF7 / RFU, SLC12A2 / Fold change vs veh, SLC12A2 / RFU, IBTK / Fold change vs veh, IBTK / RFU, ESF1 / Fold change vs veh, ESF1 / Fold change vs veh, TMEM50B / RFU, TAOK1 / Fold change vs veh, TAOK1 / RFU, ACBD3 / Fold change vs veh, ACBD3 / RFU, TMA16 / Fold change vs veh, TMA16 / RFU, RWDD3 / Fold change vs veh, RWDD3 / RFU, BCAT1 / Fold change vs veh, BCAT1 / RFU, EDEM3 / Fold change vs veh, EDEM3 / RFU, TMEM33 / Fold change vs veh, TMEM33 / RFU, WDR75 / Fold change vs veh, WDR75 / RFU, AHCTF1 / Fold change vs veh, AHCTF1 / RFU, TFRC / Fold change vs veh, TFRC / RFU, ZDHHC17 / Fold change vs veh, ZDHHC17 / RFU, NOM1 / Fold change vs veh, NOM1 / RFU, ARL8B / Fold change vs veh, ARL8B / RFU, ZBTB11 / Fold change vs veh, ZBTB11 / RFU, TAMM41 / Fold change vs veh, TAMM41 / RFU, KIAA1704 /// LOC100996395 / Fold change vs veh, KIAA1704 /// LOC100996395 / RFU, ING1 / Fold change vs veh, ING1 / RFU, TRMT61B / Fold change vs veh, TRMT61B / RFU, FUBP3 / Fold change vs veh, FUBP3 / RFU, TP53 / Fold change vs veh, TP53 / RFU, TNKS2 / Fold change vs veh, TNKS2 / RFU, ZFP14 / Fold change vs veh, ZFP14 / RFU, ACTR2 / Fold change vs veh, ACTR2 / RFU, PPP3R1 / Fold change vs veh, PPP3R1 / RFU, PIK3R1 / Fold change vs veh, PIK3R1 / RFU, HNRNPA1 / Fold change vs veh, HNRNPA1 / RFU, RNF170 / Fold change vs veh, RNF170 / RFU, ZNF28 / Fold change vs veh, ZNF28 / RFU, RNGTT / Fold change vs veh, RNGTT / RFU, OGT / Fold change vs veh, OGT / RFU, BRD1 / Fold change vs veh, BRD1 / RFU, MARS / Fold change vs veh, MARS / RFU, ZNF655 / Fold change vs veh, ZNF655 / RFU, FAHD1 / Fold change vs veh, FAHD1 / RFU, BDP1 / Fold change vs veh, BDP1 / RFU, LRRCC1 / Fold change vs veh, LRRCC1 / RFU, ARID1A / Fold change vs veh, ARID1A / RFU, ZNF146 / Fold change vs veh, ZNF146 / RFU, ZNF330 / Fold change vs veh, ZNF330 / RFU, GPN3 / Fold change vs veh, GPN3 / RFU, C9orf123 / Fold change vs veh, C9orf123 / RFU, N4BP2L2 / Fold change vs veh, N4BP2L2 / RFU, ARFIP1 / Fold change vs veh, ARFIP1 / RFU, FAM179B / Fold change vs veh, FAM179B / RFU, BCL10 / Fold change vs veh, BCL10 / RFU, UHRF1BP1L / Fold change vs veh, UHRF1BP1L / RFU, BET1 / Fold change vs veh, BET1 / RFU, CNOT2 / Fold change vs veh, CNOT2 / RFU, ZNF268 / Fold change vs veh, ZNF268 / Fold change vs veh, ZNF507 / RFU, DGCR2 / Fold change vs veh, DGCR2 / RFU, WDSUB1 / Fold change vs veh, WDSUB1 / Fold change vs veh, HSP90B1 /// MIR3652 / RFU, ADSS / Fold change vs veh, ADSS / RFU, GK / Fold change vs veh, GK / RFU, ZNF148 / Fold change vs veh, ZNF148 / RFU, TAF9 / Fold change vs veh, TAF9 / RFU, SLC1A5 / Fold change vs veh, SLC1A5 / RFU, SLMO2 / Fold change vs veh, SLMO2 / RFU, ABCC4 / Fold change vs veh, ABCC4 / RFU, LOC101060439 /// RAP1B / Fold change vs veh, LOC101060439 /// RAP1B / RFU, RFX7 / Fold change vs veh, RFX7 / RFU, GTPBP10 / Fold change vs veh, GTPBP10 / RFU, CNEP1R1 / Fold change vs veh, CNEP1R1 / RFU, BIVM-ERCC5 /// ERCC5 / Fold change vs veh, BIVM-ERCC5 /// ERCC5 / RFU, ILF3 / Fold change vs veh, ILF3 / RFU 11762660_at / Fold change /veh 11762660_at / RFU VCAN (11757783_s_at) / Fold change /veh VCAN (11757783_s_at) / RFU DDX43 (11728927_at) / Fold change /veh DDX43 (11728927_at) / RFU KRT8 (11758188_x_at) / Fold change /veh KRT8 (11758188_x_at) / RFU NKD1 (11759106_at) / Fold change /veh NKD1 (11759106_at) / RFU SRD5A1 (11742802_a_at) / Fold change /veh SRD5A1 (11742802_a_at) / RFU TPSAB1 /// TPSB2 (11721975_s_at) / Fold change /veh TPSAB1 /// TPSB2 (11721975_s_at) / RFU GSTM3 (11746129_a_at) / Fold change /veh GSTM3 (11746129_a_at) / RFU IL23R (11737362_x_at) / Fold change /veh IL23R (11737362_x_at) / RFU TMEM51 (11727254_a_at) / Fold change /veh TMEM51 (11727254_a_at) / RFU PIWIL2 (11732686_x_at) / Fold change /veh PIWIL2 (11732686_x_at) / RFU ORM1 (11744905_x_at) / Fold change /veh ORM1 (11744905_x_at) / RFU CCDC152 (11743942_at) / Fold change /veh CCDC152 (11743942_at) / RFU ECM1 (11717891_a_at) / Fold change /veh ECM1 (11717891_a_at) / RFU IL23R (11748794_a_at) / Fold change /veh IL23R (11748794_a_at) / RFU TNFAIP8L3 (11732012_x_at) / Fold change /veh TNFAIP8L3 (11732012_x_at) / RFU MBOAT4 (11741988_at) / Fold change /veh MBOAT4 (11741988_at) / RFU 11764193_at / Fold change /veh 11764193_at / RFU TMEM53 (11763286_at) / Fold change /veh TMEM53 (11763286_at) / RFU MAGEB2 (11727129_at) / Fold change /veh MAGEB2 (11727129_at) / RFU TMEM200A (11744735_a_at) / Fold change /veh TMEM200A (11744735_a_at) / RFU CCDC152 (11751479_a_at) / Fold change /veh CCDC152 (11751479_a_at) / RFU FAM211A (11726209_a_at) / Fold change /veh FAM211A (11726209_a_at) / RFU RGS16 (11746705_a_at) / Fold change /veh RGS16 (11746705_a_at) / RFU VCAN (11755009_s_at) / Fold change /veh VCAN (11755009_s_at) / RFU RHOB (11743442_s_at) / Fold change /veh RHOB (11743442_s_at) / RFU RGS16 (11720943_a_at) / Fold change /veh RGS16 (11720943_a_at) / RFU RGS16 (11720944_at) / Fold change /veh RGS16 (11720944_at) / RFU, VPS4B / Fold change vs veh, VPS4B / RFU, CREB1 / Fold change vs veh, CREB1 / RFU, DNAJC13 / Fold change vs veh, DNAJC13 / RFU, GNAQ / Fold change vs veh, GNAQ / RFU, CDK5R1 / Fold change vs veh, CDK5R1 / RFU, ZRANB3 / Fold change vs veh, ZRANB3 / RFU, CUL4A / Fold change vs veh, CUL4A / RFU, CCNY / Fold change vs veh, CCNY / RFU, UFL1 / Fold change vs veh, UFL1 / RFU, COG3 / Fold change vs veh, COG3 / RFU, DIAPH2 / Fold change vs veh, DIAPH2 / RFU, SKA2 / Fold change vs veh, SKA2 / RFU, AFF3 / Fold change vs veh, AFF3 / RFU, LMF1 / Fold change vs veh, LMF1 / RFU, IPO11 / Fold change vs veh, IPO11 / RFU, DFFB / Fold change vs veh, DFFB / RFU, FOXP1 / Fold change vs veh, FOXP1 / RFU, CARD8 / Fold change vs veh, CARD8 / RFU, STRN3 / Fold change vs veh, STRN3 / RFU, ADK / Fold change vs veh, ADK / RFU, RASSF2 / Fold change vs veh, RASSF2 / RFU, WIPF1 / Fold change vs veh, WIPF1 / RFU, LARP1B / Fold change vs veh, LARP1B / RFU, RASA1 / Fold change vs veh, RASA1 / RFU, RB1 / Fold change vs veh, RB1 / RFU, PPFIA1 / Fold change vs veh, PPFIA1 / RFU, MAT2A / Fold change vs veh, MAT2A / RFU, CCT5 / Fold change vs veh, CCT5 / RFU, WDR92 / Fold change vs veh, WDR92 / RFU, CUX1 / Fold change vs veh, CUX1 / RFU, TTC7A / Fold change vs veh, TTC7A / RFU, TMEM135 / Fold change vs veh, TMEM135 / RFU, DEPTOR / Fold change vs veh, DEPTOR / RFU, CPM / Fold change vs veh, CPM / RFU, DNAJB6 / Fold change vs veh, DNAJB6 / RFU, CACNA2D3 / Fold change vs veh, CACNA2D3 / RFU, DTX4 / Fold change vs veh, DTX4 / RFU, TFCP2 / Fold change vs veh, TFCP2 / RFU, GMCL1 /// GMCL1P1 / Fold change vs veh, GMCL1 /// GMCL1P1 / RFU, AEBP2 / Fold change vs veh, AEBP2 / RFU, SNHG1 /// SNORD22 /// SNORD25 /// SNORD26 /// SNORD27 /// SNORD28 /// SNORD29 /// SNORD31 / Fold change vs veh, SNHG1 /// SNORD22 /// SNORD25 /// SNORD26 /// SNORD27 /// SNORD28 /// SNORD29 /// SNORD31 / Fold change (Aza/veh), C12orf56 (ProbeSet 11735607_a_at) / Fold change (ACY-1035/veh), C12orf56 (ProbeSet 11735607_a_at) / Fold change (Aza/veh), FGFR1OP (ProbeSet 11751329_s_at) / Fold change (ACY-1035/veh), FGFR1OP (ProbeSet 11751329_s_at) / Fold change (Aza/veh), VPS36 (ProbeSet 11739960_a_at) / Fold change (ACY-1035/veh), VPS36 (ProbeSet 11739960_a_at) / RFU SYPL1 (11715823_x_at) / Fold change /veh SYPL1 (11715823_x_at) / RFU IGFBP7 (11715501_s_at) / Fold change /veh IGFBP7 (11715501_s_at) / RFU REEP3 (11722064_at) / Fold change /veh REEP3 (11722064_at) / RFU IGLL1 (11728026_x_at) / Fold change /veh IGLL1 (11728026_x_at): dose or concentration left out as unconfirmed
Details: MV-4-11 cells, 48 hours

Nc1ncn([C@@H]2O[C@H](CO)[C@@H](O)[C@H]2O)c(=O)n1 [azacitidine]
RFU GSTM3 (11746129_a_at): 15.07 RFU
